How the values were obtained:
[1] = system: panel of human tumor cell lines as well as normal endothelial cells; assay: Growth inhibition (IC50) of human tumor cell lines and normal endothelial cells; assay type: cell-based; conditions: newly synthesized compounds compared with compounds synthesized by the original method
Excerpt: Before conducting experiments with newly synthesized 3- and 4-F-GlcNAc the effects of 3- and 4-F-GlcNAc on the growth of a panel of human tumor cell lines as well as normal endothelial cells (i.e. IC50 values) were first determined and compared with the original growth inhibitory action (9 Bernacki, R. J. et al. (1977) J. Supra. Stru., 7:235–250; 10 Sharma, M. and W. Korytnyk (1980) Carbohyd. Res., 79:39–51;11 Sharma, M. et al. (1990). Carbohyd. Res., 198:205–22).

[2] = previous studies; cited from earlier work
[3] = system: human ovarian, A121, tumor cells; conditions: cited from earlier work
[4] = system: P-selectin ligand activity of CLA+ T-lymphocytes; assay: Parallel-plate flow chamber, CLA+ T-cell tethering and rolling on P-selectin chimera; assay type: cell-based, human
Experimental: (§1) To analyze the affects of 4-F-GlcNAc on the function of CLA on human T-cells, we examined the ability of 4-F-GlcNAc-treated (0.05, 0.1, 0.5 mM for 30 hrs) CLA-+ T-cells cultures to engage with immobilized E- and P-selectin chimera in the parallel-plate flow chamber. As described for flow cytometric analyses (Example 13), cells were first pretreated with neuraminidase to remove terminal sialic acid residues required for HECA-452 reactivity and for E- and P-selectin ligand activity of CLA. This approach allowed for the assessment on de novo synthesized CLA molecules.
(§2) Tethering and rolling of human T-cells on recombinant human E- and P-selectin-Ig chimera (provided by Dr. Robert Fuhlbrigge, Harvard Medical School) and human L-selectin-Ig (gift from Dr. Ray Camphausen, Wyeth/Genetics Institute, Inc., Cambridge, Mass.) were analyzed in the parallel-plate flow chamber under physiologic shear stress conditions (3). To prepare E- and P-selectin-Ig chimera spots, protein A (300 μg/15 μl 0.1M NaHCO3) was adsorbed to Ten-twenty-nine™ Petri dishes for 2 h at 37° C. Human serum albumin ([…] PBS) then added and incubated for 2 h at 37° C. to block non-specific binding sites. E-selectin-Ig (50 ng/50 μl PBS) or P-selectin-Ig (50 ng/50 μl PBS) solutions was pipetted directly over the pre-existing protein A spots for 18 h at 4° C. To prepare L-selectin-Ig spots, L-selectin-Ig (300 ng/15 μl PBS) or isotype control human IgG (300 ng/15 μl) were adsorbed directly to plastic (non-protein A-coated) for 18 h at 4° C. and blocked in 100% FBS for 2 h at 4° C.
(§3) CLA^+ T-cells or freshly isolated PBL were treated with neuraminidase and metabolic glycosylation inhibitors or with protease (bromelain) as described above, washed twice in HBSS, suspended at 2×10^6/ml in HBSS/10 mM HEPES/2 mM CaCl2 (H/H/Ca^++) and infused into the chamber over selectin chimeras. Protease treatment was performed to control for residual E-selectin activity not attributable to the expression of CLA on a protein scaffold. Cell tethering was permitted at 0.6 dynes/cm^2 for 1 min, then stepwise increments in shear stress every 15 sec were employed to a final shear stress level of 60 dynes/cm^2. The number of cells rolling/viewing field (at 100× magnification) was quantified at each level of shear stress in triplicates for a minimum of three experiments. […] Negative control experiments were performed in parallel, wherein cell binding was examined in H/H adhesion assay medium containing 5 mM EDTA as well as assaying cell binding to human IgG isotype control.
(§4) Utilizing the parallel-plate flow chamber under physiologic shear stress conditions, E-, P- and L-selectin ligand activities of human CLA^+ T-cells treated were analyzed in an identical manner as cells prepared for Western blotting and autoradiography studies.

[5] = system: E-selectin ligand activity of CLA+ T-lymphocytes; assay: Parallel-plate flow chamber, CLA+ T-cell tethering and rolling on E-selectin chimera; assay type: cell-based, human
Experimental: as §1, §2, §3, §4

[6] = system: L-selectin ligand activity of human CLA+ T-cells; assay: Parallel-plate flow chamber, CLA+ T-cell rolling on L-selectin chimera; assay type: cell-based
Experimental: as §2, §3, §4

[7] = system: HECA-452 epitopes on PSGL-1; assay: Western blot of HECA-452 epitopes on PSGL-1 of CLA+ T-cells; assay type: cell-based, human
Experimental: For analysis of CLA expression on T-cells treated with glycoconjugate modifiers, CLA^+ T-cells were first pretreated with neuraminidase (0.1 U/ml at 37° C. for 1 h) to eliminate functional CLA and cleave all HECA-452 reactive epitopes from the cell surface (35–38). Since we wanted to investigate whether these compounds directly affected CLA expression and function, neuraminidase pretreatment followed by incubations with glycosylation modifiers allowed for examination of de novo synthesized CLA/HECA-452 epitopes re-expressed on the cell surface. After neuraminidase digestion, cells were then incubated with tunicamycin (0.02 mM) (an inhibitor of GlcNAc phosphotransferase, the initial step of N-glycosylation), swainsonine (0.23 mM) (an inhibitor of α-mannosidase II and complex-type N-glycosylation), 4-F-GlcNAc (0.05 mM) (putative inhibitor of poly-N-acetyllactosamine biosynthesis), BAG (an inhibitor of O-glycan biosynthesis) (<2 mM) or GlcNAc (5 mM) (negative control, naturally-occurring metabolic counterpart of 4-F-GlcNAc)for 30 h in the presence of human recombinant IL-2. […] Concentrations for BAG were selected based on maximal O-glycosylation inhibitory effects at non-growth inhibitory concentrations as previously reported (39). To determine a suitable concentration of 4-F-GlcNAc for examining glycoconjugate-modifying effects without influencing cell growth or protein synthesis, we performed preliminary growth inhibitory experiments of cells incubated with 4-F-GlcNAc for 2 cell doublings (˜36 h) at 37° C. (cell viability assessed by Trypan-blue exclusion).
For lysate preparation, cells (including radiolabeled cells) were washed 3× in ice cold PBS and lysed in buffer containing 150 mM NaCl, 50 mM Tris-HCl pH 7.4, 1 mM EDTA, 0.02% NaAzide, 20 μg/ml PMSF, Complete™ protease inhibitors cocktail tablets (Roche Molecular Biochemicals) and 2% NP-40 (250 μl/10^8 cells). Following 2 h incubation on ice, insoluble cellular debris was pelleted by centrifugation for 30 min at 10,000×g at 4° C. and solubilized protein lysate was collected and quantified by Bradford protein assay (Sigma Chemical). SDS was added to a final concentration of 1% in lysate preparations utilized for immunoprecipitation experiments.
For SDS-PAGE and Western blotting, cell lysates, membrane proteins or immunoprecipitates were diluted and boiled in reducing sample buffer, and separated on 7–9% SDS-PAGE gels. Resolved protein was transferred to Sequi-blot™ PVDF membrane (Bio-Rad, Inc., Hercules, Calif.) and blocked with FBS for 1 hr at RT. Blots were incubated with rat IgM anti-human CLA HECA-452 (1 μg/ml), mouse IgG anti-human PSGL-1 moAbs PL-2 (1 μg/ml), 203, 4F9 and 4D8 (1 μg each/ml), or mouse IgG anti-human CD43 L60 (1 μg/ml) for 1 hr at RT. Isotype control immunoblots using either rat IgM or mouse IgG were performed in parallel to evaluate non-specific reactive proteins. After three washes with PBS/0.1%Tween-20 (10 min/wash), blots were incubated with the respective secondary Ab, AP-conjugated goat anti-rat IgM (1:400) or goat anti-mouse IgG (1:8000). AP substrate, Western Blue® (Promega, Madison, Wis.) was then added to develop blots.
Cells were then re-cultured in the presence of glycosylation inhibitor, diluent control (PBS) or molecular control (GlcNAc) for 30 hr and then harvested for CLA expression and functional analysis. […] To assess the duration of anti-carbohydrate effects on HECA-452 expression on PSGL-1, cells treated with 4-F-GlcNAc for 30 h and were then re-cultured in non-4-F-GlcNAc-containing medium for 72 h.

[8] = system: α-mannose (ConA staining); assay type: cell-based, human; conditions: compared with PBS or GlcNAc treatments
Experimental: (§5) For lectin blotting, cell lysates (25 μg/spot) were spotted onto methanol-permeabilized PVDF membrane and blocked in FBS for 1 h at RT. Blots were then probed with AP-Canavalia ensiformis agglutinin (ConA) (2.0 μg/ml PBS; specificity: α-mannose), AP-Triticum vulgaris (Wheat germ) agglutinin (WGA) (0.5 μg/ml PBS; specificity: terminal GlcNAc or GlcNAcβ1,4GlcNAc) or AP-Lycopersicon esculentum (tomato lectin) agglutinin (LEA) (1.0 μg/ml PBS; specificity: (Galβ1,4GlcNAc)n) for 1 h at RT (All lectins from EY Labs., Inc., San Mateo, Calif.). After washing 3× in PBS/0.1% Tween-20 and 1× in PBS (10 min each), blots were developed with Western Blue®.
(§6) To analyze and identify the glycan modifications on CLA^+ T-cells treated with 4-F-GlcNAc, lectin blotting experiments were performed with ConA (Specificity: α-mannose), WGA (Specificity: terminal GlcNAc or GlcNAcβ1,4GlcNAc) and LEA (Specificity: {Galβ1,4GlcNAc}n).

[9] = system: (Galβ1,4GlcNAc)n (LEA staining); assay: Lectin blot with LEA of CLA+ T-cell lysates; assay type: cell-based, human; conditions: compared with PBS or GlcNAc treatments
Experimental: as §5, §6

Structure (SMILES) | IC50 values, growth of tumor cell lines and normal endothelial cells [1] | dose limiting toxicity [2] [mg/kg×6 days] | incorporation of radiolabeled sugar precursors [3] | rolling adhesions on P-selectin chimera [4] | rolling adhesions on E-selectin chimera [5] | rolling adhesions on L-selectin chimera [6] | de novo synthesized HECA-452 epitopes on PSGL-1 (Western blot) [7] | effects on HECA-452 expression ([7]; concentrations below 1.0 mM, preliminary, data not shown) | ConA staining of lysates [8] | LEA staining of lysates [9]
CC(=O)N[C@H]1C(OC(C)=O)O[C@H](COC(C)=O)[C@@H](OC(C)=O)[C@@H]1F (stereo partly drawn) [3-F-GlcNAc, 2-acetamido-2-deoxy-1,4,6-tri-O-acetyl-3-deoxy-3-fluoro-D-glucopyranose] | identical to those that were previously described | ~250 | conspicuous reductions | – | – | – | – | – | – | –
CC(=O)N[C@H]1C(OCc2ccccc2)O[C@H](CO)[C@H](O)[C@@H]1O (stereo partly shown) [BAG, benzyl-O-N-acetylgalactosamide] | – | – | – | significant reductions | significant reductions | significant reductions | marked reduction | minimal effects | no effect | did not affect

Reference: patent publication US7098195B2, “Fluorinated glucosamine analogs useful for modulating post-translational glycosylations on cells” (Health Research, Inc., priority 2001, dated 2006)
